Reference: ChEMBL document CHEMBL3886774, “Bicyclic substituted pyrimidine compounds” (2016)
pIC50: −log10 of the molar value.

Key:
[1] = biological target: cGMP-specific 3',5'-cyclic phosphodiesterase (Homo sapiens, UniProt O76074); experiment: The maximum final concentration of the compound was 10 μM. The plate was incubated at 30° C. for 1 h, and 20 μL of 70 μM EDTA was then added to stop the reaction. 26 μL of solution of each well was transferred to a 384-well plate.
[2] = biological target: Dual 3',5'-cyclic-AMP and -GMP phosphodiesterase 11A (Homo sapiens, UniProt Q9HCR9); experiment: Caliper Mobility-Shift Assay: To a 96-well plate, 20 μL of 10 μM FL-cGMP as the substrate was added; then 1 μL solution of the compound in DMSO or DMSO solution without compound was added; and then 29 μL of 0.28 ng/μL PDE-11 enzyme buffer (100 mM Hepes pH 7.5, 5 mM MgCl2, 0.002% Brij-35) was added. The maximum final concentration of the compound was 10 μM. The plate was incubated at 30° C. for 1 h, and 20 μL of 70 μM EDTA was then added to stop the reaction. 26 μL of solution of each well was transferred to a 384-well plate.
Chain of Dual 3',5'-cyclic-AMP and -GMP phosphodiesterase 11A (Q9HCR9 whole entry): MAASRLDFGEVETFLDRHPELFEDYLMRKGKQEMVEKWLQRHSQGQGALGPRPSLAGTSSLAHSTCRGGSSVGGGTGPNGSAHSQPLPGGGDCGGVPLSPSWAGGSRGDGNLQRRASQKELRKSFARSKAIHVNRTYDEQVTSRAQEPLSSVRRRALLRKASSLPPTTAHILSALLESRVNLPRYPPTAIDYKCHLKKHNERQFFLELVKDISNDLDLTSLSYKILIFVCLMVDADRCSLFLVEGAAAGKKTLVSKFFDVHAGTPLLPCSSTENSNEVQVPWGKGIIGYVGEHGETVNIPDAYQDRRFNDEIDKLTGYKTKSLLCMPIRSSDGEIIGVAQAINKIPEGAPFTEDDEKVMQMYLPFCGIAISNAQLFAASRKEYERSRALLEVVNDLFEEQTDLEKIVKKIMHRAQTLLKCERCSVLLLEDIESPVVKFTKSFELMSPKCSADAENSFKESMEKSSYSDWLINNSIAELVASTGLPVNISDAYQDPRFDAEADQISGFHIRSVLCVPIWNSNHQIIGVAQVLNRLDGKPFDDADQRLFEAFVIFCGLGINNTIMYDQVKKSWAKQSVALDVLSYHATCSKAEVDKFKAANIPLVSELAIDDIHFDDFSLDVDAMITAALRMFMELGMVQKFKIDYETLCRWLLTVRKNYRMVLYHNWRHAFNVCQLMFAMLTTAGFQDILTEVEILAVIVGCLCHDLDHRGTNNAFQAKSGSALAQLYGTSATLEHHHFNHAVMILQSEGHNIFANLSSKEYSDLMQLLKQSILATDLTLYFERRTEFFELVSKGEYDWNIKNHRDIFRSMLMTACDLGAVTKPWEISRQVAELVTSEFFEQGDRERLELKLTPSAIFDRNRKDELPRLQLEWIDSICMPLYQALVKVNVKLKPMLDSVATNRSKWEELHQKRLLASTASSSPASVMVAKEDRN

pIC50 [1]: 8.67
pIC50 [2]: < 5.00
Compound: COc1ccc(CNc2nc(N3CC4CC4C3)ncc2C(=O)NCc2ccccn2)cc1Cl (configuration not stated)
